Test results from paper PMC1322272 (2005).

Tested on: 35mer RNA aptamer (RNA, aptamer) GGCGUGUAGGAUAUGCUUCGGCAGAAGGACACGCC
Test: fluorescence quenching of ligand
Conditions: 50 mM NaCl, 10 mM MgCl2; 100 mM HEPES, 295 K; 1 µM ligand, RNA titrated

ΔGassociation: -8.84 ± 0.24 kcal/mol
Structure (SMILES): Cc1cc2nc3c(=O)[nH]c(=O)nc-3n(C[C@H](O)[C@H](O)[C@H](O)COP(=O)(O)O)c2cc1C
